Measurements taken from patent US20250186391A1, “ORAL COMPLEMENT FACTOR D INHIBITORS” (BioCryst Pharmaceuticals, Inc., priority 2019, published 2025).

Biological target: Factor D (Homo sapiens (Human), UniProt P00746)
Assay: Factor D esterolytic assay
Format: biochemical
Details: Z-Lys-SBzl substrate, 100 mM HEPES, 500 mM NaCl, pH 7.5, 10% DMSO; tested a minimum of three times; read-out: Measured Ki (IC50) Value for Compounds: IC50
Method: The IC50 value of a compound (i.e., the concentration of the compound that inhibits 50% of the enzymatic activity) was calculated according to the procedure reported in U.S. Pat. No. 6,653,340 B1, e.g., column 74 (incorporated by reference).
Specifically, the compounds were dissolved in a stock solution of DMSO at 10.0 or 100 mM. A portion of this stock solution was added to assay buffer in a final volume of 50 μL. Controls included buffer alone and enzyme solutions to which DMSO was added. Substrate was added to the reaction wells immediately or after incubation at room temperature. The reaction rates were measured spectrophotometrically by the generation of product at 405 nm for 600 sec. Background absorbance at 690 nm was measured and subtracted from the absorbance at 405 nm for each well.
The reaction rate for enzyme alone was compared to the rate of enzyme in the presence of inhibitor and the percent inhibition was calculated as shown below: […]
An established esterolytic assay for the measurement of Factor D activity and inhibition of Factor D activity was used (Kam, C. M.; McRae, B. J.; Harper, J. W.; Niemann, M. A.; Volanakis, J. E.; Powers, J. C. Human complement proteins D, C2, and B Active site mapping with peptide thioester substrates. J Biol. Chem. 1987, 262, 3444-3451). For this assay Z-Lys-SBzl, 1.29 mM (Kim, S.; Narayana, S. V. L; Volanakis, J. E. Mutational analysis of the substrate binding site of human complement Factor D. Biochemistry. 1994, 33, 14393-14399.) was used as the substrate for Factor D ([…]). Hydrolysis of this compound by Factor D liberated a free sulfhydryl group which is then reacted with 5,5′-dithiobis(2nitrobenzoic acid) producing an intense yellow color (Habeeb, A. F. S. A. Reaction of protein sulfhydryl groups with Ellman's Reagent. Methods in Enzymol. 1976, 25, 457-464.). The assays were performed in 96 well microtiter plates and rates of hydrolysis were monitored at 405 nm on a Biotek Synergy H1 plate reader. Hydrolysis rates were reported as change in mOD/min. The assay was conducted in 100 mM HEPES, 500 mM NaCl, pH 7.5 containing 10% DMSO in a final volume of 50 μL per well.
An IC50, a compound concentration which inhibits 50% of the enzymatic activity, was calculated. Compounds in the examples were tested a minimum of three times.

Chain of Factor D (P00746 26-253): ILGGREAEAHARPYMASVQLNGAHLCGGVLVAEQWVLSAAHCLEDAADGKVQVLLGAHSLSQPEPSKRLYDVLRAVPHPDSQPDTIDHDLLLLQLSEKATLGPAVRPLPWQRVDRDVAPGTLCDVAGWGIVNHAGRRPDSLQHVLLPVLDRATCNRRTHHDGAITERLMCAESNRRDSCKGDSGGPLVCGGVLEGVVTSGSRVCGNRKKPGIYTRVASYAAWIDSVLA

Row | Structure (SMILES) | IC50 [nM]
1 | COc1ccc(CC(=O)O)c(OCc2c(-c3ccc(F)cc3)oc3ccc(-c4cccc(CN)c4)cc23)c1 [Compound 168c, 2-(2-((5-(3-(aminomethyl)phenyl)-2-(4-fluorophenyl)benzofuran-3-yl)methoxy)-4-methoxyphenyl)acetic acid] | < 1000
2 | CC(C)(C)c1oc2ccc(-c3cccc(CN)c3)cc2c1COc1cc(F)ccc1CC(=O)O [Compound 173c, 2-(2-((5-(3-(aminomethyl)phenyl)-2-(tert-butyl)benzofuran-3-yl)methoxy)-4-fluorophenyl)acetic acid] | < 1000
3 | NCc1cccc(-c2ccc3occ(COc4cc(C(F)(F)F)ccc4CC(=O)O)c3c2)c1 [Compound 118d, 2-(2-((5-(3-(aminomethyl)phenyl)benzofuran-3-yl)methoxy)-4-(trifluoromethyl)phenyl)acetic acid] | < 1000
4 | NCc1cccc(-c2ccc3occ(COc4cc(F)ccc4CC(=O)O)c3c2)c1 [Compound 39f, 2-(2-((5-(3-(aminomethyl)phenyl)benzofuran-3-yl)methoxy)-4-fluorophenyl)acetic acid] | < 1000
5 | N[C@H](CO)c1cccc(-c2ccc3occ(COc4ccccc4CC(=O)O)c3c2)c1 [Compound 51c, (S)-2-(2-((5-(3-(1-amino-2-hydroxyethyl)phenyl)benzofuran-3-yl)methoxy)phenyl)acetic acid] | < 1000
6 | Cc1ccc(CC(=O)O)c(OCc2c(C(C)(C)C)oc3ccc(-c4cccc(CN)c4)cc23)c1 [Compound 176c, 2-(2-((5-(3-(aminomethyl)phenyl)-2-(tert-butyl)benzofuran-3-yl)methoxy)-4-methylphenyl)acetic acid] | < 1000
7 | C[C@@H](N)c1cccc(-c2cc(CC3CCOCC3)c3occ(COc4ccccc4CC(=O)O)c3c2)c1F [Compound 164e, (R)-2-(2-((5-(3-(1-aminoethyl)-2-fluorophenyl)-7-((tetrahydro-2H-pyran-4-yl)methyl)benzofuran-3-yl)methoxy)phenyl)acetic acid] | < 1000
8 | C[C@H](N)c1cccc(-c2ccc3occ(COc4ccccc4CC(=O)O)c3c2)c1 [Compound 54c, (S)-2-(2-((5-(3-(1-aminoethyl)phenyl)benzofuran-3-yl)methoxy)phenyl)acetic acid] | < 1000
9 | NCc1cccc(-c2coc3c(COc4ccccc4CC(=O)O)cccc23)c1 [Compound 96e, 2-(2-((3-(3-(aminomethyl)phenyl)benzofuran-7-yl)methoxy)phenyl)acetic acid] | > 10000
10 | CCNc1cc(-c2cccc(CN)c2)cc2c(COc3ccccc3CC(=O)O)coc12 [Compound 150d, 2-(2-((5-(3-(aminomethyl)phenyl)-7-(ethylamino)benzofuran-3-yl)methoxy)phenyl)acetic acid] | < 1000
11 | Cc1ccccc1-c1cc(-c2cccc(CN)c2)cc2c(COc3ccccc3CC(=O)O)coc12 [Compound 223c, 2-(2-((5-(3-(aminomethyl)phenyl)-7-(o-tolyl)benzofuran-3-yl)methoxy)phenyl)acetic acid] | < 1000
12 | CNc1cc(-c2cccc(CN)c2)cc2c(COc3cc(OC)ccc3CC(=O)O)coc12 [Compound 280c, 2-(2-((5-(3-(aminomethyl)phenyl)-7-(methylamino)benzofuran-3-yl)methoxy)-4-methoxyphenyl)acetic acid] | < 1000
13 | NCc1cccc(-c2ccc3c(COc4ccccc4CC(=O)O)coc3c2)c1F [Compound 95b, 2-(2-((6-(3-(aminomethyl)-2-fluorophenyl)benzofuran-3-yl)methoxy)phenyl)acetic acid] | > 10000
14 | CC(C)n1nc(COc2ccccc2CC(=O)O)c2cc(-c3cccc(CN)c3O)ccc21 [Compound 318f, 2-(2-((5-(3-(aminomethyl)-2-hydroxyphenyl)-1-isopropyl-1H-indazol-3-yl)methoxy)phenyl)acetic acid] | < 1000
15 | NCc1cccc(-c2ccc3occ(COc4cc(Br)ccc4CC(=O)O)c3c2)c1 [Compound 192b, 2-(2-((5-(3-(aminomethyl)phenyl)benzofuran-3-yl)methoxy)-4-bromophenyl)acetic acid] | < 1000
16 | NCc1cccc(-c2cc3c(COc4ccccc4CC(=O)O)coc3c3ccoc23)c1 [Compound 123g, 2-(2-((5-(3-(aminomethyl)phenyl)benzo[1,2-b:3,4-b′]difuran-3-yl)methoxy)phenyl)acetic acid] | < 1000

Row | Structure (SMILES) | IC50 [nM]
17 | CC(C)n1nc(COc2c(C#N)cccc2CC(=O)O)c2cc(-c3cccc(CN)c3)ccc21 [Compound 305c, 2-(2-((5-(3-(aminomethyl)phenyl)-1-isopropyl-1H-indazol-3-yl)methoxy)-3-cyanophenyl)acetic acid] | < 1000
18 | CC(C)n1nc(COc2ccccc2CCC(=O)O)c2cc(-c3cccc(CN)c3)ccc21 [Compound 308d, 3-(2-((5-(3-(aminomethyl)phenyl)-1-isopropyl-1H-indazol-3-yl)methoxy)phenyl)propanoic acid] | 1000 to 10000
19 | NCc1cccc(-c2cccc3cc(COc4ccccc4CCC(=O)O)oc23)c1 [Compound 35c, 3-(2-((7-(3-(aminomethyl)phenyl)benzofuran-2-yl)methoxy)phenyl)propanoic acid] | > 10000
20 | NCc1cccc(-c2cc(COc3ccccc3CC(=O)O)cc3cc(CCOc4ccccc4CC(=O)O)oc23)c1 [Compound 20j, 2-(2-((7-(3-(aminomethyl)phenyl)-2-(2-(2-(carboxymethyl)phenoxy)ethyl)benzofuran-5-yl)methoxy)phenyl)acetic acid] | < 1000
21 | CC(C)n1nc(COc2ccccc2CC(=O)O)c2cc(-c3cc(CN)cc(C4CC4)c3)ccc21 [Compound 331e, 2-(2-((5-(3-(aminomethyl)-5-cyclopropylphenyl)-1-isopropyl-1H-indazol-3-yl)methoxy)phenyl)acetic acid] | 1000 to 10000
22 | NCc1cccc(-c2cc(Cl)cc3c(COc4ccccc4CC(=O)O)coc23)c1 [Compound 193b, 2-(2-((7-(3-(aminomethyl)phenyl)-5-chlorobenzofuran-3-yl)methoxy)phenyl)acetic acid] | 1000 to 10000
23 | COc1ccc(CC(=O)O)c(OCc2c(C(C)(C)C)oc3ccc(-c4cccc(CN)c4)cc23)c1 [Compound 174c, 2-(2-((5-(3-(aminomethyl)phenyl)-2-(tert-butyl)benzofuran-3-yl)methoxy)-4-methoxyphenyl)acetic acid] | < 1000
24 | NCc1cccc(-c2cc(CC3CCOCC3)c3occ(COc4ccccc4CC(=O)O)c3c2)c1 [Compound 163e, 2-(2-((5-(3-(aminomethyl)phenyl)-7-((tetrahydro-2H-pyran-4-yl)methyl)benzofuran-3-yl)methoxy)phenyl)acetic acid] | < 1000
25 | CC(C)n1nc(COc2ccccc2CC(=O)O)c2cc(-c3ccc(N)cc3)ccc21 [Compound 322c, 2-(2-((5-(4-aminophenyl)-1-isopropyl-1H-indazol-3-yl)methoxy)phenyl)acetic acid] | > 10000
26 | NCc1cccc(-c2ccc3occ(COc4ccccc4CCC(=O)O)c3c2)c1 [Compound 2d, 3-(2-((5-(3-(aminomethyl)phenyl)benzofuran-3-yl)methoxy)phenyl)propanoic acid] | 1000 to 10000
27 | Cc1ccc(CC(=O)O)c(OCc2nn(C)c3ccc(-c4cccc(CN)c4)cc23)c1 [Compound 206c, 2-(2-((5-(3-(aminomethyl)phenyl)-1-methyl-1H-indazol-3-yl)methoxy)-4-methylphenyl)acetic acid] | < 1000
28 | NCc1cccc(-c2ccc3occ(COc4cc(C(=O)O)ccc4CC(=O)O)c3c2)c1 [Compound 158d, 3-((5-(3-(aminomethyl)phenyl)benzofuran-3-yl)methoxy)-4-(carboxymethyl)benzoic acid] | < 1000
29 | Cn1cncc1COc1cc(-c2cccc(CN)c2)cc2c(COc3ccccc3CC(=O)O)coc12 [Compound 199f, 2-(2-((5-(3-(aminomethyl)phenyl)-7-((1-methyl-1H-imidazol-5-yl)methoxy)benzofuran-3-yl)methoxy)phenyl)acetic acid] | < 1000
30 | CCCc1oc2ccc(-c3cccc(CN)c3)cc2c1COc1ccccc1CC(=O)O [Compound 286c, 2-(2-((5-(3-(aminomethyl)phenyl)-2-propylbenzofuran-3-yl)methoxy)phenyl)acetic acid] | < 1000
31 | Cc1c(CN)cccc1-c1ccc2c(c1)c(COc1ccccc1CC(=O)O)nn2C(C)C [Compound 330c, 2-(2-((5-(3-(aminomethyl)-2-methylphenyl)-1-isopropyl-1H-indazol-3-yl)methoxy)phenyl)acetic acid] | < 1000
